# Earlier results as cited in patent US20050250805A1, “Pharmaceutical ointment formulations” (Glenmark Pharmaceuticals Limited, priority 2004, published 2005).
# What was measured:
# human subjects = details: 50 human subjects, total of 15 applications; according to the manufacturer's brochure
smiles,measurement,setting,value
"CN1CCCC1=O [Pharmasolve, N-methyl-2-pyrrolidone]",PII (skin irritation; practically nonirritating to rabbit skin),rabbit skin,0.5
same,Primary dermal irritation / sensitization in repeated insult patch test,human subjects,neither a primary dermal irritant nor a sensitizer
